According to PubChem BioAssay AID330 (DTP/NCI, 2004):
Values joined by “and” are separate entries in the source; they are usually repeats but may differ in a detail not shown here. Equal values may be shown once. Inconclusive results and toxic doses are left out.

Test system: P388 leukemia ip, CD2F1 mice, survival T/C
Test: NCI In Vivo Anticancer Drug Screen. Data for tumor model P388 Leukemia (intraperitoneal) in CD2F1 (CDF1) mice
Conditions: endpoint: median survival time, higher = longer survival
Outline: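 Mice carrying the transplanted tumor received test compound or vehicle. Survival was recorded in each group, and the value is the treated-group measurement divided by that of the vehicle-treated control group.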

[1] = dose: 12.5 mg/kg/injection, schedule: Q01DX009 (ip), vehicle: Klucel (hydroxypropylcellulose) (HPC)
[2] = dose: 25.0 mg/kg/injection, schedule: Q01DX009 (ip), vehicle: Klucel (hydroxypropylcellulose) (HPC)
[3] = dose: 50.0 mg/kg/injection, schedule: Q01DX009 (ip), vehicle: Klucel (hydroxypropylcellulose) (HPC)
[4] = dose: 100.0 mg/kg/injection, schedule: Q01DX009 (ip), vehicle: Klucel (hydroxypropylcellulose) (HPC)
[5] = dose: 50.0 mg/kg/injection, schedule: Q01DX009 (ip), vehicle: saline with Tween-80
[6] = dose: 100.0 mg/kg/injection, schedule: Q01DX009 (ip), vehicle: saline with Tween-80
[7] = dose: 200.0 mg/kg/injection, schedule: Q01DX009 (ip), vehicle: saline with Tween-80
[8] = dose: 50.0 mg/kg/injection, schedule: Q01DX005 (ip), vehicle: saline
[9] = dose: 100.0 mg/kg/injection, schedule: Q01DX005 (ip), vehicle: saline
[10] = dose: 25.0 mg/kg/injection, schedule: Q01DX009 (ip), vehicle: saline
[11] = dose: 60.0 mg/kg/injection, schedule: Q01DX005 (ip), vehicle: saline with Tween-80
[12] = dose: 200.0 mg/kg/injection, schedule: Q01DX005 (ip), vehicle: saline

SMILES: C/C=C/C#CC#C/C=C/C=C/CC
- T/C [1]: 104 % of control
- T/C [2]: 98 % of control
- T/C [3]: 103 % of control
- T/C [4]: 98 % of control

SMILES: Oc1nc(-c2ccccc2)sc1-c1ccccc1
- T/C [5]: 89 % of control
- T/C [6]: 92 % of control
- T/C [7]: 104 % of control

SMILES: COc1ccc(/C=C/CC2Cc3cc4c(cc3OC2c2ccc(OC)cc2)OCO4)cc1 (stereo unspecified)
- T/C (dose: 3.75 mg/kg/injection, schedule: Q01DX005 (ip), vehicle: saline with Tween-80): 93 % of control
- T/C (dose: 7.5 mg/kg/injection, schedule: Q01DX005 (ip), vehicle: saline with Tween-80): 90 % of control

SMILES: O=NN(CCCl)C(=O)Nc1cccc(O)c1
- T/C (dose: 66.0 mg/kg/injection, schedule: Q04DX003 (ip), vehicle: Klucel (hydroxypropylcellulose) (HPC)): 220 % of control
- T/C (dose: 100.0 mg/kg/injection, schedule: Q04DX003 (ip), vehicle: Klucel (hydroxypropylcellulose) (HPC)): 240 % of control

SMILES: C1CN2CCOC2O1
- T/C (dose: 60.0 mg/kg/injection, schedule: Q01DX005 (ip), vehicle: saline): 100 % of control
- T/C (dose: 120.0 mg/kg/injection, schedule: Q01DX005 (ip), vehicle: saline): 101 % of control
- T/C (dose: 240.0 mg/kg/injection, schedule: Q01DX005 (ip), vehicle: saline): 99 % of control

SMILES: COC(=O)C(N)C(C)C (stereo unspecified)
- T/C [8]: 100 % of control
- T/C [9]: 92 % of control

SMILES: Cc1cc(NC(=O)c2ccc(C(=O)Nc3ccc(C4=NCCN4)c(C)c3)cc2)ccc1C1=NCCN1
- T/C (dose: 100.0 mg/kg/injection, schedule: Q04DX003 (ip), vehicle: saline with Tween-80): 118 % of control
- T/C (dose: 200.0 mg/kg/injection, schedule: Q04DX003 (ip), vehicle: saline with Tween-80): 104 % of control
- T/C (dose: 400.0 mg/kg/injection, schedule: Q04DX003 (ip), vehicle: saline with Tween-80): 104 % of control

SMILES: COc1ccc(C2OC(=O)C(=O)C2=O)cc1OC (stereo unspecified)
- T/C (dose: 60.0 mg/kg/injection, schedule: Q01DX005 (ip), vehicle: Klucel (hydroxypropylcellulose) (HPC)): 100 % of control
- T/C (dose: 120.0 mg/kg/injection, schedule: Q01DX005 (ip), vehicle: Klucel (hydroxypropylcellulose) (HPC)): 107 % of control
- T/C (dose: 240.0 mg/kg/injection, schedule: Q01DX005 (ip), vehicle: Klucel (hydroxypropylcellulose) (HPC)): 105 % of control

SMILES: COC(=O)/C(C#N)=C/c1cc(OC)c(O)cc1Br
- T/C (dose: 25.0 mg/kg/injection, schedule: Q01DX005 (ip), vehicle: Klucel (hydroxypropylcellulose) (HPC)): 104 % of control
- T/C (dose: 50.0 mg/kg/injection, schedule: Q01DX005 (ip), vehicle: Klucel (hydroxypropylcellulose) (HPC)): 104 % of control and 88 % of control
- T/C (dose: 100.0 mg/kg/injection, schedule: Q01DX005 (ip), vehicle: Klucel (hydroxypropylcellulose) (HPC)): 105 % of control
- T/C (dose: 200.0 mg/kg/injection, schedule: Q01DX005 (ip), vehicle: Klucel (hydroxypropylcellulose) (HPC)): 100 % of control

SMILES: CNc1nc(NC)nc(NC)n1
- T/C (dose: 12.5 mg/kg/injection, schedule: Q01DX009 (ip), vehicle: saline): 95 % of control
- T/C [10]: 104 % of control
- T/C (dose: 50.0 mg/kg/injection, schedule: Q01DX009 (ip), vehicle: saline): 95 % of control
- T/C (dose: 100.0 mg/kg/injection, schedule: Q01DX009 (ip), vehicle: saline): 93 % of control

SMILES: Brc1cccc[n+]1Cc1cc2ccccc2c2ccccc12
- T/C (dose: 25.0 mg/kg/injection, schedule: Q04DX002 (ip), vehicle: Klucel (hydroxypropylcellulose) (HPC)): 105 % of control
- T/C (dose: 50.0 mg/kg/injection, schedule: Q04DX002 (ip), vehicle: Klucel (hydroxypropylcellulose) (HPC)): 106 % of control
- T/C (dose: 100.0 mg/kg/injection, schedule: Q04DX002 (ip), vehicle: Klucel (hydroxypropylcellulose) (HPC)): 112 % of control

SMILES: CSc1nc2nc[nH]c(=O)c2[nH]1
- T/C (dose: 25.0 mg/kg/injection, schedule: Q01DX005 (ip), vehicle: saline with Tween-80): 95 % of control
- T/C (dose: 50.0 mg/kg/injection, schedule: Q01DX005 (ip), vehicle: saline with Tween-80): 99 % of control
- T/C (dose: 100.0 mg/kg/injection, schedule: Q01DX005 (ip), vehicle: saline with Tween-80): 94 % of control

SMILES: CN1C(=O)n2c(nc3ccccc32)C(N=[N+]=[N-])(N=[N+]=[N-])C1=O (stereo unspecified)
- T/C (dose: 15.0 mg/kg/injection, schedule: Q01DX005 (ip), vehicle: saline with Tween-80): 108 % of control
- T/C (dose: 30.0 mg/kg/injection, schedule: Q01DX005 (ip), vehicle: saline with Tween-80): 101 % of control
- T/C [11]: 101 % of control and 110 % of control

SMILES: Cc1c(=O)n(C)c2ccccc2[n+]1[O-]
- T/C [11]: 96 % of control
- T/C (dose: 120.0 mg/kg/injection, schedule: Q01DX005 (ip), vehicle: saline with Tween-80): 93 % of control
- T/C (dose: 240.0 mg/kg/injection, schedule: Q01DX005 (ip), vehicle: saline with Tween-80): 100 % of control

SMILES: COC(=O)/C=C1\C(=O)OC2(C)CCCCC12 (stereo unspecified)
- T/C [5]: 95 % of control
- T/C [6]: 97 % of control
- T/C [7]: 100 % of control

SMILES: CN1CCC/C1=C\C(=O)c1ccncc1
- T/C [8]: 96 % of control
- T/C [9]: 112 % of control
- T/C [12]: 124 % of control

SMILES: N/C(=N\Cl)C(Cl)(Cl)Cl
- T/C (dose: 16.5 mg/kg/injection, schedule: Q01DX009 (ip), vehicle: saline): 113 % of control
- T/C [10]: 106 % of control
- T/C (dose: 37.5 mg/kg/injection, schedule: Q01DX009 (ip), vehicle: saline): 111 % of control

SMILES: CCN(CC)C(=S)S[Se](SC(=S)N(CC)CC)(SC(=S)N(CC)CC)SC(=S)N(CC)CC
- T/C [1]: 103 % of control
- T/C [2]: 100 % of control
- T/C [3]: 97 % of control
- T/C [4]: 104 % of control

SMILES: CC(=O)C(C(=O)CCSCC(N)C(=O)O)C(SCC(N)C(=O)O)c1ccc(Cl)c(Cl)c1 (stereo unspecified)
- T/C [8]: 103 % of control
- T/C [9]: 103 % of control
- T/C [12]: 102 % of control

SMILES: CCCCCCC(=O)N1SC(NC(=O)OC)=Nc2ccccc21
- T/C (dose: 50.0 mg/kg/injection, schedule: Q01DX005 (ip), vehicle: acetone): 108 % of control
- T/C (dose: 100.0 mg/kg/injection, schedule: Q01DX005 (ip), vehicle: acetone): 102 % of control
- T/C (dose: 200.0 mg/kg/injection, schedule: Q01DX005 (ip), vehicle: acetone): 102 % of control
